The record followed here is article PMC12881674, “Activation of TRPV3 channels in bladder cancer cells stimulates ATP release” (Molecular Pharmacology, 2025).

This test deals with T1, mouse TRPV4 (Mus musculus, UniProt Q9EPK8).
T1 construct: expressed in transfected cells; host or cells: HEK293
The test can be described thus: fluo-4 Ca2+ assay selectivity, HEK cells expressing mouse TRPV4. To be noted: concentrations up to 50 μM. It counts as cell-based. The source says:
KU-19-19 (DSMZ no. ACC 395), CAL-29 (DSMZ no. ACC 515), 647-V (DSMZ no. ACC 414), RT-4 (DSMZ no. ACC 412), and RT-112 (DSMZ no. ACC 418) bladder cancer cell lines were obtained from the Leibniz Institute DSMZ (German Collection of Microorganisms and Cell Cultures). Human TRPV3 (NM_145068, purchased from OriGene) and mouse TRPV3 (NM_001371006), rat TRPV1, mouse TRPV2, mouse TRPV4, human TRPM2, human TRPM8, and human TRPA1 were stably transfected in HEK293 cells as described before.[27] […]
All fluorometric Ca^2+ assays were performed in HBS buffer at room temperature. […] For the primary compound screening and the generation of concentration-response analyses, a robotic liquid handling station (Freedom Evo 150; Tecan) with a built-in custom-made fluorescence plate imager was used. […] Fluorescence was excited using a 470-nm light-emitting diode, and emitted light was imaged through a 515-nm–long pass filter with a cooled Zyla 5.5 camera (Andor). Fluorescence was recorded and processed under the control of the μ-Manager 2.0 gamma software (https://micro-manager.org.[28]). After recording baseline fluorescence, compounds were dispensed into the wells via the liquid handling device. […] For further analysis, fluorescence signals were calculated for each well, corrected for background intensities and normalized to the initial signals. […]

T1 sequence (Q9EPK8 whole entry): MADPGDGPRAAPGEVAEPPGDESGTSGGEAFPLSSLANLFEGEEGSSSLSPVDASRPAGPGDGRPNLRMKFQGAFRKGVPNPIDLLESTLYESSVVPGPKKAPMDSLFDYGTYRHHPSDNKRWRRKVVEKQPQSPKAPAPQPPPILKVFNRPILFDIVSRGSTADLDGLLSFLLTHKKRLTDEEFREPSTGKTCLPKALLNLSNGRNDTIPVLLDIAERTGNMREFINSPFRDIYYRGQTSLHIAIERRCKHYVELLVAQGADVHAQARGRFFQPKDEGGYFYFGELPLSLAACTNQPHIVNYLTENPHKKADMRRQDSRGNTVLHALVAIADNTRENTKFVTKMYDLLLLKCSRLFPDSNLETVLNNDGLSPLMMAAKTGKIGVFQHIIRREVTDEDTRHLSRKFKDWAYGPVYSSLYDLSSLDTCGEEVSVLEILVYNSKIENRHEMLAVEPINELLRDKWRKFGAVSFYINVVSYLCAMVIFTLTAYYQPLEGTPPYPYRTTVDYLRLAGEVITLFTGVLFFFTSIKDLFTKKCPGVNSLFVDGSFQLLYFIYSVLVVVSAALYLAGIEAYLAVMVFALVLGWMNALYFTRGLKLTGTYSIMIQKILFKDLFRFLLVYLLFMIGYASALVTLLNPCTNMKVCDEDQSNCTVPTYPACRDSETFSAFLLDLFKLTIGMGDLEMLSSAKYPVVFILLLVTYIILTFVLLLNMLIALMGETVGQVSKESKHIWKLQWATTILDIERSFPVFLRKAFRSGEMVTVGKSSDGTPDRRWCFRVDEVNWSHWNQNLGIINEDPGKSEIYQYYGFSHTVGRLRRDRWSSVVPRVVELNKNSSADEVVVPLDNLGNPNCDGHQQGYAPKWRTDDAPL

`COC(=O)C12CN(Cc3ccccc3)CC1(C(=O)OC)CN(Cc1ccccc1)C2` (stereo not shown) [AV3-1]: the “effect on TRPV4” value was “no effect”.
